For the test, the system named is RSV Long strain. The test can be described thus: Viral cytopathic effect (CPE) assay, RSV Long strain. It counts as cell-based, Respiratory Syncytial Virus. The note with it: human respiratory syncytial virus, 144 h, cell viability after 6 days (Cell Counting kit-8). The method in brief:
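Cells in DMEM with 10% FBS infected next day with RSV Long (A subtype) at a dose giving ~80–90% CPE after 6 days, alongside half-log compound dilutions. Viability at day 6 by CCK-8, absorbance 450 nm referenced to 630 nm; EC50 is concentration giving 50% of maximal protection.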

What is called EC50 is the concentration giving half of the maximal effect. Read a low EC50 as a more potent agent. `[2H]C([2H])(c1cc2cc(Cl)ccc2n1CCS(C)(=O)=O)N1C(=O)C2(CC2)c2ccncc21` [Example 9, 1′-[{5-Chloro-1-[2-(methylsulfonyl)ethyl]-1H-indol-2-yl}(^2H2)methyl]spiro[cyclopropane-1,3′-pyrrolo[2,3-c]pyridin]-2′(1′H)-one] had an EC50 of 0.019 µM.

Molecule `O=C(NCC(F)(F)F)OCCCn1c(CN2C(=O)C3(CC3)c3ccncc32)cc2cc(Cl)ccc21` [Example 31, 3-{5-Chloro-2-[(2′-oxospiro[cyclopropane-1,3′-pyrrolo[2,3-c]pyridin]-1′(2′H)-yl)methyl]-1H-indol-1-yl}propyl(2,2,2-trifluoroethyl)carbamate] showed an EC50 of 0.052 µM.

Molecule `CS(=N)(=O)CCCn1c(CN2C(=O)C3(CC3)c3ccncc32)cc2cc(Cl)ccc21` (stereo not drawn) [Example 14-1, 1′-({5-Chloro-1-[3-(S-methylsulfonimidoyl)propyl]-1H-indol-2-yl}methyl)spiro[cyclopropane-1,3′-pyrrolo[2,3-c]pyridin]-2′(1′H)-one] registered an EC50 of 0.006 µM.

`O=C1CNC(=O)N1CCn1c(CN2C(=O)C3(CC3)c3ccncc32)cc2cc(Cl)ccc21` [Example 20, 3-(2-{5-Chloro-2-[(2′-oxospiro[cyclopropane-1,3′-pyrrolo[2,3-c]pyridin]-1′(2′H)-yl)methyl]-1H-indol-1-yl}ethyl)imidazolidine-2,4-dione] yielded an EC50 of 3.48 µM.

Regarding `Cc1ccc2c(c1)cc(CN1C(=O)C3(CC3)c3ccncc31)n2CCS(C)(=O)=O` [Example 1-13, 1′-({5-Methyl-1-[2-(methylsulfonyl)ethyl]-1H-indol-2-yl}methyl)spiro[cyclopropane-1,3′-pyrrolo[2,3-c]pyridin]-2′(1′H)-one], the concentration for a half-maximal effect (EC50) was 0.009 µM.

With `CS(=O)(=O)CCn1c(CN2C(=O)C3(CC3)c3cccnc32)cc2cc(Cl)ccc21` [Example 2-5, 1′-({5-Chloro-1-[2-(methylsulfonyl)ethyl]-1H-indol-2-yl}methyl)spiro[cyclopropane-1,3′-pyrrolo[2,3-b]pyridin]-2′(1′H)-one], the EC50 stood at 0.169 µM.

Take `O=C(O)CCn1c(CN2C(=O)C3(CC3)c3ccncc32)cc2cc(Cl)cc(F)c21` [Example 16-2, 3-{5-Chloro-7-fluoro-2-[(2′-oxospiro[cyclopropane-1,3′-pyrrolo[2,3-c]pyridin]-1′(2′H)-yl)methyl]-1H-indol-1-yl}propanoic acid]: a half-maximal effect (EC50) was put at 0.3 µM.

For the molecule `CS(=O)(=O)CCn1c(CN2C(=O)C3(CCCC3)c3ccncc32)cc2cc(Cl)cnc21` [Example 2-8, 1′-({5-Chloro-1-[2-(methylsulfonyl)ethyl]-1H-pyrrolo[2,3-b]pyridin-2-yl}methyl)spiro[cyclopentane-1,3′-pyrrolo[2,3-c]pyridin]-2′(1′H)-one], the EC50 came out at 0.919 µM.

Take `CS(=O)(=O)CCn1c(CN2C(=O)C3(CC3)c3c(Cl)cccc32)nc2cc(Cl)ccc21` [Example 34-3, 4′-Chloro-1′-({5-chloro-1-[2-(methylsulfonyl)ethyl]-1H-benzimidazol-2-yl}methyl)spiro[cyclopropane-1,3′-indol]-2′(1′H)-one]: a half-maximal response (EC50) required 0.066 µM.

In turn, `CS(=O)(=O)NCCCn1c(CN2C(=O)C3(CC3)c3ccncc32)cc2cc(Cl)ccc21` [Example 27-3, N-(3-{5-Chloro-2-[(2′-oxospiro[cyclopropane-1,3′-pyrrolo[2,3-c]pyridin]-1′(2′H)-yl)methyl]-1H-indol-1-yl}propyl)methanesulfonamide] showed a concentration for a half-maximal effect (EC50) of 0.499 µM.

The molecule `CCS(=O)(=O)CCn1c(CN2C(=O)C3(CC3)c3ccncc32)cc2cc(Cl)cnc21` [Example 2-2, 1′-({5-Chloro-1-[2-(ethylsulfonyl)ethyl]-1H-pyrrolo[2,3-b]pyridin-2-yl}methyl)spiro[cyclopropane-1,3′-pyrrolo[2,3-c]pyridin]-2′(1′H)-one] displayed a concentration for a half-maximal effect (EC50) of 0.019 µM.

`O=C1N(Cc2cc3cc(Cl)ccc3n2CCCN2CC[C@@H](O)C2)c2cnccc2C12CC2` [Example 21, 1′-[(5-Chloro-1-{3-[(3R)-3-hydroxypyrrolidin-1-yl]propyl}-1H-indol-2-yl)methyl]spiro[cyclopropane-1,3′-pyrrolo[2,3-c]pyridin]-2′(1′H)-one] returned an EC50 of 0.544 µM.

In turn, `CS(=O)(=O)N1CCN(CCn2c(CN3C(=O)C4(CC4)c4ccncc43)cc3cc(Cl)ccc32)CC1` [Example 27-1, 1′-[(5-Chloro-1-{2-[4-(methylsulfonyl)piperazin-1-yl]ethyl}-1H-indol-2-yl)methyl]spiro[cyclopropane-1,3′-pyrrolo[2,3-c]pyridin]-2′(1′H)-one] showed an EC50 of 0.006 µM.

Take `CS(=O)(=O)CCCn1c(CN2C(=O)C3(CC3)c3cccnc32)cc2cc(Cl)ccc21` [Example 22-2, 1′-({5-Chloro-1-[3-(methylsulfonyl)propyl]-1H-indol-2-yl}methyl)spiro[cyclopropane-1,3′-pyrrolo[2,3-b]pyridin]-2′(1′H)-one]: a half-maximal effect (EC50) was put at 0.088 µM.

The molecule `CS(=O)(=O)CCn1c(CN2C(=O)C3(CC3)c3ccncc32)cc2c(Cl)cccc21` [Example 1-6, 1′-({4-Chloro-1-[2-(methylsulfonyl)ethyl]-1H-indol-2-yl}methyl)spiro[cyclopropane-1,3′-pyrrolo[2,3-c]pyridin]-2′(1′H)-one] yielded an EC50 of 1.67 µM.

Molecule `NCCn1c(CN2C(=O)C3(CC3)c3ccncc32)cc2cc(Cl)ccc21` [Example 24-5, 1′-{[1-(2-Aminoethyl)-5-chloro-1H-indol-2-yl]methyl}spiro[cyclopropane-1,3′-pyrrolo[2,3-c]pyridin]-2′(1′H)-one] yielded an EC50 of 0.064 µM.

Molecule `C[S+]([O-])CCCn1c(CN2C(=O)C3(CC3)c3ccncc32)cc2cc(Cl)ccc21` (stereo not drawn) [Example 5-1, 1′-({5-Chloro-1-[3-(methylsulfinyl)propyl]-1H-indol-2-yl}methyl)spiro[cyclopropane-1,3′-pyrrolo[2,3-c]pyridin]-2′(1′H)-one] returned an EC50 of 0.009 µM.

Regarding `CS(=O)(=O)CCn1c(CN2C(=O)C3(CC3)c3ccncc32)cc2cc(Cl)ncc21` [Example 5-2, 1′-({5-Chloro-1-[2-(methylsulfonyl)ethyl]-1H-pyrrolo[2,3-c]pyridin-2-yl}methyl)spiro[cyclopropane-1,3′-pyrrolo[2,3-c]pyridin]-2′(1′H)-one], the response was half-maximal at 0.269 µM (EC50).

In turn, `O=C1N(Cc2nc3cc(Cl)ccc3n2CCS(=O)(=O)C2CC2)c2cnccc2C12CC2` [Example 36-2, 1′-({5-Chloro-1-[2-(cyclopropylsulfonyl)ethyl]-1H-benzimidazol-2-yl}methyl)spiro[cyclopropane-1,3′-pyrrolo[2,3-c]pyridin]-2′(1′H)-one] displayed a concentration giving a half-maximal response (EC50) of 0.008 µM.

Consider `CN(C(=O)CCn1c(CN2C(=O)C3(CC3)c3ccncc32)cc2cc(Cl)ccc21)S(C)(=O)=O` [Example 19-3, 3-{5-Chloro-2-[(2′-oxospiro[cyclopropane-1,3′-pyrrolo[2,3-c]pyridin]-1′(2′H)-yl)methyl]-1H-indol-1-yl}-N-methyl-N-(methylsulfonyl)propanamide], for which it took 0.047 µM to reach a half-maximal effect (EC50).

As to `CC(=O)N1CCN(CCn2c(CN3C(=O)C4(CC4)c4ccncc43)cc3cc(Cl)ccc32)CC1` [Example 26-1, 1′-({1-[2-(4-Acetylpiperazin-1-yl)ethyl]-5-chloro-1H-indol-2-yl}methyl)spiro[cyclopropane-1,3′-pyrrolo[2,3-c]pyridin]-2′(1′H)-one], it took 0.025 µM to reach a half-maximal effect (EC50).

For the origin of these results see patent US10189838B2, “Aza-oxo-indoles for the treatment and prophylaxis of respiratory syncytial virus infection” (Hoffmann-La Roche Inc., priority 2013, dated 2019).
